The supplement of paper PMC8960247
Where a name gives a salt, the structure may show the parent alone. ± gives the standard error.

How the values were obtained:
621-102 (TSC2-deficient) = test: relative viability vs DMSO; higher = less cytotoxic; details: serum: 10% FBS, 72 h
621-103 (TSC2-rescued) = test: as above; details: serum: 10% FBS, 72 h
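Note: immortalized renal angiomyolipoma cells stably carrying empty vector or TSC2, dosed in 384-well plates in DMEM, viability normalized to vehicle-treated wells within each plate.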

Structure (SMILES) | relative viability (621-102 (TSC2-deficient); 0.0001 µM) [%] | relative viability (621-102 (TSC2-deficient); 0.001 µM) [%] | relative viability (621-102 (TSC2-deficient); 0.01 µM) [%] | relative viability (621-102 (TSC2-deficient); 0.1 µM) [%] | relative viability (621-102 (TSC2-deficient); 1 µM) [%] | relative viability (621-102 (TSC2-deficient); 10 µM) [%] | relative viability (621-103 (TSC2-rescued); 0.0001 µM) [%] | relative viability (621-103 (TSC2-rescued); 0.001 µM) [%] | relative viability (621-103 (TSC2-rescued); 0.01 µM) [%] | relative viability (621-103 (TSC2-rescued); 0.1 µM) [%] | relative viability (621-103 (TSC2-rescued); 1 µM) [%] | relative viability (621-103 (TSC2-rescued); 10 µM) [%]
CN1CCc2c(c3ccccc3n2Cc2ccc(C(=O)NO)cc2)C1 [Tubastatin A HCl] | 73.7 ± 1.7 | 91.6 ± 2.8 | 85.5 ± 1 | 90.1 ± 3.6 | 82.6 ± 2.3 | 75.4 ± 2.7 | 101 ± 2.1 | 102 ± 2.5 | 101 ± 3.4 | 100 ± 2.9 | 98.48 ± 0.54 | 90.6 ± 1.5
N#CC(=C(/N)Sc1ccccc1N)/C(C#N)=C(\N)Sc1ccccc1N [U0126-EtOH] | 105 ± 3.4 | 103 ± 1.3 | 103 ± 2.5 | 103 ± 1.1 | 99.47 ± 0.83 | 93.3 ± 4.4 | 105 ± 2.4 | 101 ± 1.1 | 99.9 ± 1.5 | 101 ± 2 | 100.6 ± 0.44 | 90.4 ± 1.6
NC(=O)c1cccc(-c2cccc(OC(=O)NC3CCCCC3)c2)c1 [URB597] | 104.9 ± 0.41 | 107 ± 7 | 109.5 ± 0.46 | 98.4 ± 2.9 | 99.6 ± 4.4 | 92.7 ± 5.8 | 103 ± 3.1 | 106 ± 3.3 | 103 ± 1.4 | 106 ± 2.8 | 104 ± 4 | 112.8 ± 0.77
CC(C)(C)C#Cc1cc(N(C(=O)[C@H]2CC[C@H](C)CC2)[C@H]2CC[C@H](O)CC2)c(C(=O)O)s1 [VX-222] | 109 ± 1.1 | 117.11 ± 0.037 | 111 ± 2 | 111 ± 1.3 | 103 ± 4.3 | 106 ± 4.4 | 105.5 ± 0.52 | 102.7 ± 0.81 | 100 ± 1.2 | 99.76 ± 0.98 | 104 ± 4.7 | 105.42 ± 0.075
NC(=O)c1ccc(N(C(N)=O)c2c(F)cccc2F)nc1-c1ccc(F)cc1F [VX-702] | 107 ± 1.9 | 109 ± 1.9 | 96.7 ± 1.6 | 98.6 ± 1.4 | 111.1 ± 0.41 | 104 ± 4 | 101.5 ± 0.42 | 99.8 ± 1.8 | 99.92 ± 0.12 | 99.4 ± 1.5 | 96.56 ± 0.13 | 99.1 ± 1.8
O=c1ncn2nc(Sc3ccc(F)cc3F)ccc2c1-c1c(Cl)cccc1Cl [VX-745] | 106 ± 5.1 | 112 ± 5.5 | 107 ± 1.1 | 104 ± 2.1 | 106 ± 4 | 93.3 ± 3.9 | 99.1 ± 1 | 101 ± 1.2 | 99.4 ± 1.5 | 100 ± 1.5 | 99.42 ± 0.31 | 98.127 ± 0.049
CCO[C@@H]1OC(=O)C[C@@H]1NC(=O)[C@@H]1CCCN1C(=O)[C@@H](NC(=O)c1ccc(N)c(Cl)c1)C(C)(C)C [VX-765] | 109 ± 0.74 | 105 ± 4.9 | 116 ± 3.2 | 108 ± 4.6 | 101 ± 4 | 106 ± 1.8 | 111 ± 2.9 | 95.9 ± 4.8 | 101 ± 4.6 | 105 ± 6.8 | 101.8 ± 0.69 | 102 ± 4.9
